# Values of other authors, collected in patent US20200018753A1, “NON-INVASIVE BIOMARKER TO IDENTIFY SUBJECT AT RISK OF PRETERM DELIVERY” (NYU Winthrop Hospital, priority 2012, published 2020).
# Tested on: Prostaglandin D2 formation
# Settings: IL-1β-stimulated SK-N-SH neuronal cells; presumably by inhibiting cyclooxygenase (COX), especially COX-2
smiles,measurement,value
Oc1ccc(C=Cc2cc(O)cc(O)c2)cc1 [Resveratrol],formation of Prostaglandin D2,reduce formation of Prostaglandin D2
